What follows are compounds tested on Rattus norvegicus (assay: Antinociceptive activity in po dosed Sprague-Dawley rat by low intensity tail flick test).
Type: functional
`CCCc1nc(N2CCOCC2)cc(C)c1C(=O)NCc1cccc(F)c1` showed an ED50 of 81 mg/kg.
For `CCSc1nc(N2CCOCC2)cc(C)c1C(=O)NCc1cccc(F)c1`, the ED50 was 4.3 mg/kg.
Compound `CCSc1nc(N2CCOCC2)cc(C)c1C(=O)NCc1ccc(F)cc1` has an ED50 of 94 mg/kg.
For `Cc1cc(N2CCOCC2)nc(C2CC2)c1C(=O)NC[C@@H]1CCCC[C@H]1O`, the ED50 was 67 mg/kg.
Work on `CCSc1nc(N2CCOCC2)cc(C)c1C(=O)NCc1cc(C)cc(F)c1` yielded an ED50 of 78 mg/kg.
Compound `CCSc1nc(N2CCOCC2)cc(C)c1C(=O)NCCCC(C)(C)C` has an ED50 of 100 mg/kg.
In the case of `COc1nc(N2CCOCC2)cc(C)c1C(=O)NCc1cccc(F)c1`, the ED50 is reported as 79 mg/kg.
Compound `CCSc1nc(N2CCOCC2)cc(C)c1C(=O)NCCCC(C)C` has an ED50 of 46 mg/kg.

These compounds were tested against T1, Voltage-gated potassium channel, KQT; KCNQ2(Kv7.2)/KCNQ3(Kv7.3) (Homo sapiens) (UniProt O43526+O43525) (assay: Modulation of human KCNQ2/3 channel expressed in CHO-K1 cells by fluorescence assay).
Type: cell-based
Compound `CCCc1nc(N2CCOCC2)cc(C)c1C(=O)NCc1cccc(F)c1` has an Activity of 181 nM.
`CCSc1nc(N2CCOCC2)cc(C)c1C(=O)NCc1cccc(F)c1` gave an Activity of 134 nM.
In the case of `CCSc1nc(N2CCOCC2)cc(C)c1C(=O)NCc1ccc(F)cc1`, the Activity is reported as 124 nM.
Compound `Cc1cc(N2CCOCC2)nc(C2CC2)c1C(=O)NC[C@@H]1CCCC[C@H]1O` has an Activity of 483 nM.
For `CCSc1nc(N2CCOCC2)cc(C)c1C(=O)NCc1cc(C)cc(F)c1`, the Activity was 56 nM.
`CCSc1nc(N2CCOCC2)cc(C)c1C(=O)NCCCC(C)(C)C` was tested, and the Activity was 42 nM.
`COc1nc(N2CCOCC2)cc(C)c1C(=O)NCc1cccc(F)c1` showed an Activity of 736 nM.
With `CCSc1nc(N2CCOCC2)cc(C)c1C(=O)NCCCC(C)C` the Activity was 206 nM.

These compounds were tested against T1, Voltage-gated potassium channel, KQT; KCNQ2(Kv7.2)/KCNQ3(Kv7.3) (Homo sapiens) (assay: Modulation of human KCNQ2/3 channel expressed in CHO-K1 cells by fluorescence assay relative to retigabine).
Type: cell-based
Set-up: concentration or dose not given beside the values
Work on `CCCc1nc(N2CCOCC2)cc(C)c1C(=O)NCc1cccc(F)c1` yielded an Activity of 176%.
`CCSc1nc(N2CCOCC2)cc(C)c1C(=O)NCc1cccc(F)c1` gave an Activity of 171%.
`CCSc1nc(N2CCOCC2)cc(C)c1C(=O)NCc1ccc(F)cc1` gave an Activity of 158%.
Compound `Cc1cc(N2CCOCC2)nc(C2CC2)c1C(=O)NC[C@@H]1CCCC[C@H]1O` has an Activity of 245%.
`CCSc1nc(N2CCOCC2)cc(C)c1C(=O)NCc1cc(C)cc(F)c1` gave an Activity of 160%.
For `CCSc1nc(N2CCOCC2)cc(C)c1C(=O)NCCCC(C)(C)C`, the Activity was 244%.
`COc1nc(N2CCOCC2)cc(C)c1C(=O)NCc1cccc(F)c1` showed an Activity of 155%.
With `CCSc1nc(N2CCOCC2)cc(C)c1C(=O)NCCCC(C)C` the Activity was 215%.
